In patent US11939314B2, “Quinolin-2-one derivatives” (MERCK PATENT GMBH, priority 2016, dated 2024) one finds IC50 data, which are given here for 30 molecules.

One assay has as its target T1, c-Kit(V654A) (Homo sapiens, UniProt P10721, V654A).
T1 construct: amino acids 544-end containing the V654A mutation; GST (N)
The assay can be described thus: c-Kit(V654A) assay. To be noted: recombinant human c-Kit aa 544-end, 200 μM ATP, 1.4E-06 means 1.4×10^−6, read-out: Inhibition (IC50) of c-KIT (V654A). The class given is biochemical. In a few lines:
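Radiometric filter-binding read-out: substrate 33P incorporation counted by scintillation after P30 filtermat washes in 75 mM phosphoric acid and methanol. Enzyme: N-GST recombinant human c-Kit aa 544-end carrying V654A.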

For another assay, the target named is T2, PDGFRalpha(V561D) (Homo sapiens, UniProt P16234, V561D).
T2 construct: recombinant human PDGFRalpha, amino acids 550end containing the V561 D mutation; 6His (N)
The assay can be described thus: PDGFRalpha(V561D) assay. The class given is biochemical. Particulars: recombinant human PDGFRalpha aa 550-end, 200 μM ATP, 1.4E-06 means 1.4×10^−6, read-out: Inhibition (IC50) of PDGFRα (V561D). The procedure:
PDGFRalpha(V561D) (N-terminal 6His-tagged, recombinant human PDGFRalpha, amino acids 550end containing the V561 D mutation) is incubated with 8 mM MOPS pH 7.0, 0.2 mM EDTA, 250 μM GGMEDIYEFMGGKKK, 10 mM MgAcetate and [gamma-33P-ATP] (specific activity approx. 500 cpm/pmol, concentration 200 μM). The reaction is initiated by the addition of the MgATP mix. After incubation for 40 minutes at room temperature, the reaction is stopped by the addition of 3% phosphoric acid solution. 10 μL of the reaction is then spotted onto a P30 filtermat and washed three times for 5 minutes in 75 mM phosphoric acid and once in methanol prior to drying and scintillation counting.

The structures appear in SMILES notation.

T2 sequence (P16234 550-1089 V561D): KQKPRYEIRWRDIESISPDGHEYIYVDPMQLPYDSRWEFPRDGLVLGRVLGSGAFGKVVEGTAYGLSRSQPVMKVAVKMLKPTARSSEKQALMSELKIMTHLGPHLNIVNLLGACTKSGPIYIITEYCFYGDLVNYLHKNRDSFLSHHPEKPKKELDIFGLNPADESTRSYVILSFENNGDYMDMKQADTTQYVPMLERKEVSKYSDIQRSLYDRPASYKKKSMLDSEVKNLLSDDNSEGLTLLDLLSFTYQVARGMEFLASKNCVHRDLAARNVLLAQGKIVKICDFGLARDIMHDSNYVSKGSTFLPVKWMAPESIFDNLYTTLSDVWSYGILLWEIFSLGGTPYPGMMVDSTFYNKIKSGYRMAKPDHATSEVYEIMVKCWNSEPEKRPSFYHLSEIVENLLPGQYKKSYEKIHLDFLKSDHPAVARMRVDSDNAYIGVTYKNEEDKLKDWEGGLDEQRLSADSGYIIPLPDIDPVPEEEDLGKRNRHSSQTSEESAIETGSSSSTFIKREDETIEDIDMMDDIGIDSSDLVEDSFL
T1 sequence (P10721 544-976 V654A): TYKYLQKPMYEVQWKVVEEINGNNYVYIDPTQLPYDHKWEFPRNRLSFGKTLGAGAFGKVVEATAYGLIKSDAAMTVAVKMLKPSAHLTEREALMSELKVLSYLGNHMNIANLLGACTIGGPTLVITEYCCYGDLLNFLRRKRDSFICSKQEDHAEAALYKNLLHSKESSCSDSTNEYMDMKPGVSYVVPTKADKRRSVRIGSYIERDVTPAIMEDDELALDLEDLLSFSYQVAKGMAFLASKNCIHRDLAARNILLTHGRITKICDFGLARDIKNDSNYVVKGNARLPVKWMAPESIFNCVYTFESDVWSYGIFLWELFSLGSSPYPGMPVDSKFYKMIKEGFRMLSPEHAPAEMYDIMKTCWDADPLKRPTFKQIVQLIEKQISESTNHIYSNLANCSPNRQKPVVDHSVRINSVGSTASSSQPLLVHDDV

Take `O=C(c1ccc(-n2cc(-c3cc4cnccc4[nH]c3=O)nn2)cc1)N1CCOCC1` [A41, 3-{1-[4-(morpholine-4-carbonyl)-phenyl]-1H-[1,2,3]triazol-4-yl}-1H-[1,6]naphthyridin-2-one]: the concentration for half-maximal inhibition (IC50) at c-Kit(V654A) worked out at 240 nM; at PDGFRalpha(V561D), 44 nM.
For `CN(C)C(=O)c1ccc(-n2cc(-c3cc4ccncc4[nH]c3=O)nn2)cc1` [A42, N,N-dimethyl-4-[4-(2-oxo-1,2-dihydro-[1,7]naphthyridin-3-yl)-[1,2,3]triazol-1-yl]-benzamide], the concentration for half-maximal inhibition (IC50) at c-Kit(V654A) was found to be 84 nM; at PDGFRalpha(V561D), 38 nM.
The corresponding values for `O=c1[nH]c2ncccc2cc1-c1cnn(-c2ccccc2)c1` [A43, 3-(1-phenyl-1H-pyrazol-4-yl)-1H-[1,8]naphthyridin-2-one] are 140 nM and 170 nM.
As to `O=c1[nH]c2ccncc2cc1-c1cn(-c2ccc(F)cc2)nn1` [A45, 3-[1-(4-fluoro-phenyl)-1H-[1,2,3]triazol-4-yl]-1H-[1,6]naphthyridin-2-one], the half-inhibitory concentration (IC50) on c-Kit(V654A) came out at 1100 nM; on PDGFRalpha(V561D) it was 330 nM.
The corresponding values for `O=c1[nH]c2ccncc2cc1-c1cnn(-c2ccccc2)c1` [A46, 3-(1-phenyl-1H-pyrazol-4-yl)-1H-[1,6]naphthyridin-2-one] are 370 nM and 150 nM.
On the same counts, the results for `O=C(c1ccc(-n2cc(-c3cc4cccnc4[nH]c3=O)nn2)cc1)N1CCOCC1` [A47, 3-{1-[4-(morpholine-4-carbonyl)-phenyl]-1H-[1,2,3]triazol-4-yl}-1H-[1,8]naphthyridin-2-one] are 24 nM and 7 nM.
The corresponding values for `O=C(c1ccc(-n2cc(-c3cc4c(F)cccc4[nH]c3=O)nn2)cc1)N1CCOCC1` [A48, 5-fluoro-3-{1-[4-(morpholine-4-carbonyl)-phenyl]-1H-[1,2,3]triazol-4-yl}-1H-quinolin-2-one] are 17 nM and 19 nM.
In the case of `O=C1COCCN1c1ccc(-n2cc(-c3cc4ccncc4[nH]c3=O)nn2)cc1` [A49, 3-{1-[4-(3-oxo-morpholin-4-yl)-phenyl]-1H-[1,2,3]triazol-4-yl}-1H-[1,7]naphthyridin-2-one], the IC50 amounted to 150 nM at c-Kit(V654A) and 42 nM at PDGFRalpha(V561D).
The corresponding values for `O=C(c1ccc(-n2cc(-c3cc4ccccc4[nH]c3=O)nn2)cc1)N1CCNCC1` [A50, 3-{1-[4-(piperazine-1-carbonyl)-phenyl]-1H-[1,2,3]triazol-4-yl}-1H-quinolin-2-one] are 24 nM and 14 nM.
As for `O=C(NC1CCNCC1)c1ccc(-n2cc(-c3cc4cccnc4[nH]c3=O)nn2)cc1` [A51, 4-[4-(2-oxo-1,2-dihydro-[1,8]naphthyridin-3-yl)-[1,2,3]triazol-1-yl]-N-piperidin-4-yl-benzamide], the IC50 turned out to be 91 nM at c-Kit(V654A) and 22 nM on PDGFRalpha(V561D).
The corresponding values for `O=c1[nH]c2ccccc2cc1-c1cn(-c2ccc(N3CCNCC3)cc2)nn1` [A52, 3-[1-(4-piperazin-1-yl-phenyl)-1H-[1,2,3]triazol-4-yl]-1H-quinolin-2-one] are 22 nM and 27 nM.
On the same counts, the results for `O=C(c1ccc(-n2cc(-c3cc4cc(F)ccc4[nH]c3=O)nn2)cc1)N1CCNCC1` [A53, 6-fluoro-3-{1-[4-(piperazine-1-carbonyl)-phenyl]-1H-[1,2,3]triazol-4-yl}-1H-quinolin-2-one] are 11 nM and 9 nM.
The corresponding values for `O=c1[nH]c2ccccc2cc1-c1cn(-c2cnc(N3CCNCC3)nc2)nn1` [A54, 3-[1-(2-piperazin-1-yl-pyrimidin-5-yl)-1H-[1,2,3]triazol-4-yl]-1H-quinolin-2-one] are 490 nM and 160 nM.
Turning to `O=c1[nH]c2ccccc2cc1-c1cn(-c2ccc(N3CCCNCC3)cc2)nn1` [A55, 3-[1-(4-[1,4]diazepan-1-yl-phenyl)-1H-[1,2,3]triazol-4-yl]-1H-quinolin-2-one], the IC50 at c-Kit(V654A) and at PDGFRalpha(V561D) was 14 nM in each case.
For the molecule `CN1CCN(C(=O)c2ccc(-n3cc(-c4cc5cc(F)ccc5[nH]c4=O)nn3)cc2)CC1` [A56, 6-fluoro-3-{1-[4-(4-methyl-piperazine-1-carbonyl)-phenyl]-1H-[1,2,3]triazol-4-yl}-1H-quinolin-2-one], the half-inhibitory concentration (IC50) on c-Kit(V654A) worked out at 7 nM; on PDGFRalpha(V561D), 5 nM.
`CN1CCN(C(=O)c2ccc(-n3cc(-c4cc5ccccc5[nH]c4=O)nn3)cc2)CC1` [A57, 3-{1-[4-(4-methyl-piperazine-1-carbonyl)-phenyl]-1H-[1,2,3]triazol-4-yl}-1H-quinolin-2-one]: the IC50 on c-Kit(V654A) is 15 nM; on PDGFRalpha(V561D), 6 nM.
On the same counts, the results for `CN1CCC(NC(=O)c2ccc(-n3cc(-c4cc5ccccc5[nH]c4=O)nn3)cc2)CC1` [A58, N-(1-Methyl-piperidin-4-yl)-4-[4-(2-oxo-1,2-dihydro-quinolin-3-yl)-[1,2,3]triazol-1-yl]-benzamide] are 44 nM and 21 nM.
Regarding `CN1CCC(N(C)C(=O)c2ccc(-n3cc(-c4cc5ccccc5[nH]c4=O)nn3)cc2)CC1` [A59, N-methyl-N-(1-methyl-piperidin-4-yl)-4-[4-(2-oxo-1,2-dihydro-quinolin-3-yl)-[1,2,3]triazol-1-yl]-benzamide], the IC50 came to 76 nM on c-Kit(V654A) and 46 nM at PDGFRalpha(V561D).
On the same counts, the results for `CN1CCC(COc2ccc(-n3cc(-c4cc5ccccc5[nH]c4=O)nn3)cc2)CC1` [A60, 3-{1-[4-(1-methyl-piperidin-4-ylmethoxy)-phenyl]-1H-[1,2,3]triazol-4-yl}-1H-quinolin-2-one] are 38 nM and 33 nM.
Turning to `CN(C)C1CCN(C(=O)c2ccc(-n3cc(-c4cc5ccccc5[nH]c4=O)nn3)cc2)CC1` [A61, 3-{1-[4-(4-dimethylamino-piperidine-1-carbonyl)-phenyl]-1H-[1,2,3]triazol-4-yl}-1H-quinolin-2-one], the results for the IC50 at c-Kit(V654A) and at PDGFRalpha(V561D) were 29 nM and 11 nM, respectively.
As to `CN1CCN(C(=O)c2ccc(-n3cc(-c4cc5cnccc5[nH]c4=O)nn3)cc2)CC1` [A62, 3-{1-[4-(4-methyl-piperazine-1-carbonyl)-phenyl]-1H-[1,2,3]triazol-4-yl}-1H-[1,6]naphthyridin-2-one], the IC50 on c-Kit(V654A) was 200 nM; on PDGFRalpha(V561D), 46 nM.
Consider `CN1CCN(C(=O)c2ccc(-n3cc(-c4cc5ccncc5[nH]c4=O)nn3)cc2)CC1` [A63, 3-{1-[4-(4-methyl-piperazine-1-carbonyl)-phenyl]-1H-[1,2,3]triazol-4-yl}-1H-[1,7]naphthyridin-2-one], for which the IC50 at c-Kit(V654A) was determined as 130 nM; at PDGFRalpha(V561D), 40 nM.
On the same counts, the results for `CN1CCN(C(=O)c2ccc(-n3cc(-c4cc5cccnc5[nH]c4=O)nn3)cc2)CC1` [A64, 3-{1-[4-(4-methyl-piperazine-1-carbonyl)-phenyl]-1H-[1,2,3]triazol-4-yl}-1H-[1,8]naphthyridin-2-one] are 44 nM and 16 nM.
The corresponding values for `Cc1ccc2cc(-c3cn(-c4ccc(C(=O)N5CCN(C)CC5)cc4)nn3)c(=O)[nH]c2n1` [A65, 7-methyl-3-{1-[4-(4-methyl-piperazine-1-carbonyl)-phenyl]-1H-[1,2,3]triazol-4-yl}-1H-[1,8]naphthyridin-2-one] are 1200 nM and 150 nM.
Consider `CN1CCN(c2ncc(-n3cc(-c4cc5ccccc5[nH]c4=O)nn3)cn2)CC1` [A66, 3-{1-[2-(4-methyl-piperazin-1-yl)-pyrimidin-5-yl]-1H-[1,2,3]triazol-4-yl}-1H-quinolin-2-one], for which the figures for the IC50 at c-Kit(V654A) and at PDGFRalpha(V561D) were 640 nM and 190 nM, respectively.
On the same counts, the results for `CN1CCN(C(=O)c2ccc(-n3cc(-c4cc5cc(F)cnc5[nH]c4=O)nn3)cc2)CC1` [A67, 6-fluoro-3-{1-[4-(4-methyl-piperazine-1-carbonyl)-phenyl]-1H-[1,2,3]triazol-4-yl}-1H-[1,8]naphthyridin-2-one] are 24 nM and 4 nM.
As to `CN1CCN(c2ccc(-n3cc(-c4cc5ccccc5[nH]c4=O)nn3)cc2)C(=O)C1` [A68, 3-{1-[4-(4-methyl-2-oxo-piperazin-1-yl)-phenyl]-1H-[1,2,3]triazol-4-yl}-1H-quinolin-2-one], the IC50 on c-Kit(V654A) was found to be 28 nM; at PDGFRalpha(V561D) it was 7 nM.
The corresponding values for `CN1CCCN(c2ccc(-n3cc(-c4cc5ccccc5[nH]c4=O)nn3)cc2)CC1` [A69, 3-{1-[4-(4-methyl-[1,4]diazepan-1-yl)-phenyl]-1H-[1,2,3]triazol-4-yl}-1H-quinolin-2-one] are 14 nM and 10 nM.
As to `CN1CCN(c2ccc(-n3cc(-c4cc5cc(F)ccc5[nH]c4=O)nn3)cc2)CC1` [A70, 6-fluoro-3-{1-[4-(4-methyl-piperazin-1-yl)-phenyl]-1H-[1,2,3]triazol-4-yl}-1H-quinolin-2-one], the figures for the IC50 on c-Kit(V654A) and at PDGFRalpha(V561D) were 14 nM and 5 nM, respectively.
The corresponding values for `CN1CCN(c2ccc(-n3cc(-c4cc5cc(F)ccc5[nH]c4=O)nn3)cc2)C(=O)C1` [A71, 6-fluoro-3-{1-[4-(4-methyl-2-oxo-piperazin-1-yl)-phenyl]-1H-[1,2,3]triazol-4-yl}-1H-quinolin-2-one] are 8 nM and 4 nM.

What is called IC50 is the concentration that gives 50% inhibition.
